# Measured values taken from patent US7884136B2, “Modified-release formulations of a bupropion salt” (Biovail Laboratories International S.R.L., priority 2005, dated 2011).
# Like-named read-outs stand apart in the source and are kept apart here. Marks after values point to notes of the source that are not given here.
# Columns and labels:
# [1] = Thermal analysis by TGA of bupropion salts; assay type: physicochemical; settings: for TGA: weight lost between room temperature and 100° C.: room temperature to 100° C.
# Procedure: 2-5 mg of each salt was placed in an aluminium pan and covered with its lid. DSC was run for each sample at the rate of 10° C./min (for HBr salt, different rates were used to investigate for polymorphs) from 30° C. to 400° C. TGA was also used for each of the HBr, HCl, maleate and tosylate salts.
# (§1) The salts were analysed by DSC (at 10° C./min from 30° C. up to 400° C.) and the pH (aq. 0.5%), and the moisture content by KF were also measured. The TGA was performed on the HCl, maleate, tosylate and HBr salts.
# [2] = Moisture content of bupropion salts by KF; assay type: physicochemical; settings: for KF (moisture content), Original (Initial APIs): original API salts
# Procedure: (§2) The eight salts were first evaluated by HPLC, KF, pH and DSC for purity, water content, aqueous pH and possible polymorphs.
# as §1
# [3] = Forced degradation stability study of bupropion salts spiked with placebo/excipients, closed vials, 40° C./75% RH, HPLC assay and impurities
# Procedure: The stability of the salts was evaluated based on the formation of the main degradation products (see below) as determined by HPLC analysis and the % potency (or assay) of the API, after specific time periods in the stability chamber. The effect of the addition of solvents, such as water, ethanol and isopropyl alcohol, was also studied.
# The samples of each salt and the spiked salts with the bupropion HCl XL were prepared under the conditions mentioned in Table 4. […] The stability of the bupropion salts were evaluated based on the formation of the main degradation product 3-chlorobenzoic acid (3-CBZ) and the intermediate degradation products diketone 827U76 and the ketohydroxyl derivatives (20U78 and 852U77) (Scheme 2).
# As mentioned above, the stability samples were prepared in 2 mL vials and used directly for assay and impurity analysis by HPLC without further sample preparations to minimize errors.
# [4] = pH of 0.5% aqueous solution of bupropion salts; assay type: physicochemical; settings: for pH (aq. 0.5%), Original (Initial APIs): original API salts
# Procedure: as §2, §1
# [5] = Stability of bupropion HBr polymorphic forms I, II and III by PXRD under ICH conditions; assay type: physicochemical; settings: for Stability of the polymorphic form (words): ICH conditions 40° C., 75% R.H.; for Stability of the polymorphic form (words) / PXRD profile / crystalline form after storage (words): hydrobromide; for PXRD profile / crystalline form after storage (words): ICH conditions 40° C./75% r.h., 1 month
# Procedure: It is well known that organic molecules can crystallize into solid forms. Moreover the same organic compound may assume different crystalline arrangements in solid form, depending on the conditions under which the crystal product is formed. This phenomenon is commonly known as polymorphism. […] The crystal forms of the products obtained in this study were determined by powder X-ray diffraction (PXRD). A RIGAKU miniflex instrument (Radiation Cu K∝, generator 30 KV, filter Ni) was used to obtain the PXRD data.
# The three polymorphic forms were subjected to stability testing. […] Samples of the polymorphic forms II and III were tested after 1 month under the same accelerated stability conditions.
# Samples of bupropion HBr form I were subjected to the conditions for the accelerated stability study as described in Example 10 and the shelf life stability study as described in Example 11.
# 10 g of bupropion HBr form I were dissolved in a mixture of 170 ml of acetone and 7 ml of water. The mixture was brought to reflux with dissolution of the solid. The solution was then cooled to room temperature. After one night the precipitate formed was filtered and dried at 40° C. under vacuum (30 mmHg) for 12 hours. […] The crystalline form was checked after maintaining the product under these conditions for 1 month.
# The mixture was brought to reflux obtaining complete dissolution of the solid. The solution was then cooled to room temperature without stirring and left in these conditions for 18 hours. The resulting crystalline solid was then filtered and dried under vacuum (30 mmHg) at 50° C. for 4 hours. […] The crystalline form was checked after maintaining the product in these conditions for 1 month.
# [6] = TGA experiment at 100° C., loss of API salt over time; assay type: physicochemical; settings: TGA at 100° C.
# Procedure: The average weight of the excipients and the weight of the active pharmaceutical ingredient (API) present in the samples are presented in Table 72. […] FIG. 53 is a graph showing the loss of each salt over time in a TGA experiment at 100° C.
# [7] = Solubility of Bupropion HBr vs Bupropion HCl in water, EtOH, IPA; assay type: physicochemical
# [8] = Comparative forced degradation of bupropion HCl and HBr API salts, closed glass bottle, 40° C./75% RH, HPLC; assay type: physicochemical; settings: closed glass bottle
# Procedure: Further stability tests were performed by directly comparing bupropion HBr and bupropion HCl salts in forced degradation studies. […] At specified times, the material in the bottles was analyzed for the presence of degradation products and % potency (% assay).
# The samples were exposed to the above conditions in a closed bottle for few days, and then subjected to HPLC analysis. The amount of the main degradation products present after treatment were compared with those amounts that were present initially.
# The samples were analysed after 14 and 24 days (study-1) and 10 days (study II), in a quantitative manner by direct treatment of the whole content of the bottle as per the HPLC standard test method (P05.901.10).
# [9] = Release of bupropion base from bupropion HCl and HBr; assay type: physicochemical; settings: 150 mg of the salt tested
# Procedure: It was previously observed that when 150 mg of bupropion HCl was tested for its release of bupropion, the base value that was released was 130 mg.
# [10] = In IPA/EtOH, 32 days, closed vials
# [11] = In water, 32 days, closed vials
# [12] = repeat study, 40 C/75% RH, 10 Days, Lot# STN06973, hydrochloride
# [13] = repeat study, 40 C/75% RH, 10 Days, Lot# STN06978, hydrochloride
# [14] = repeat study, 40 C/75% RH, Initial, Lot# STN06973, hydrochloride
# [15] = repeat study, 40 C/75% RH, Initial, Lot# STN06978, hydrochloride
compound,measurement,setting,value
Bupropion tosylate,TGA: residue at 400° C.,[1],10.3%
same,TGA: weight lost between room temperature and 100° C.,[1],1.3%
same,"KF (moisture content), Original (Initial APIs)",[2],1.71%
same,"KF (moisture content), Original (Initial APIs)",[2]; listed as Bup-Tosylate,1.71* %
same,"KF, After recrystallization (R&D), Tested after 2 Months","[2]; re-crystallized salt, 2 months",0.18%
same,"KF, After recrystallization (R&D), Tested after 1 day",[2]; re-crystallized salt,0.23%
same,"KF, After recrystallization (R&D), Tested after 1 day","[2]; re-crystallized salt, listed as Bup-Tosylate",023%
same,"Content of impurity 852U77, order of salts",[3]; [10],fumarate > HBr ≈ HCl ≈ maleate ≈ tosylate
same,"Total imp., order of salts",[3]; [10],fumarate > maleate > HBr > HCl > tosylate
same,"Total imp., order of salts",[3]; [11],fumarate > HBr > HCl > tosylate > maleate
same,"pH (aq. 0.5%), Original (Initial APIs)",[4]; 0.5% aqueous solution,5.56
same,"pH (aq. 0.5%), After recrystallization (R&D), Tested after 1 day","[4]; re-crystallized salt, 0.5% aqueous solution",5.88
"Br.CC(NC(C)(C)C)C(=O)c1cccc(Cl)c1 (stereo not drawn) [Form II, bupropion hydrobromide]",Stability of the polymorphic form (words),[5]; listed as form II,quite stable
same,PXRD profile / crystalline form after storage (words),[5]; listed as bupropion HBr form II,still in form II
same,PXRD profile / crystalline form after storage (words),[5]; listed as form II,no change in the PXRD profile
"Br.CC(NC(C)(C)C)C(=O)c1cccc(Cl)c1 (stereo not drawn) [Form I, bupropion hydrobromide]",Stability of the polymorphic form (words),[5]; listed as form I,quite stable
same,PXRD profile after storage,"[5]; accelerated (40° C./75% RH) and shelf life conditions, 3 months and 6 months",gave the same results
"CC(NC(C)(C)C)C(=O)c1cccc(Cl)c1.Cl (racemic) [Bupropion HCl, (±)-1-(3-chlorophenyl)-2-[(1,1-dimethylethyl)amino]-1-propanone hydrochloride, reference compound]",TGA: residue at 400° C.,[1],minimal residues
same,Disproportionation of the salt at elevated temperature,[6],disproportionation of the HCl salt occurs with concomitant loss of gaseous HCl
same,solubility,"[7]; ethanol, organic solvent or mixture, EtOH, read-out: Solubility, EtOH",80 mg/mL
same,solubility,"[7]; isopropanol, organic solvent or mixture, IPA, read-out: Solubility, IPA",10 mg/mL
same,solubility,"[7]; water, read-out: Solubility, Water",270 mg/mL
same,Moisture Content (KF),"[2]; Table 3, supplier API",0.01%
same,"KF (moisture content), Original (Initial APIs)",[2],0.0%
same,Order of stability (assay) with IPA & EtOH,"[3]; DS and excipients spiked with IPA & EtOH, 32 days, closed vials, 40° C.",HCl>HBr>tosylate>maleate>fumarate
same,Order of stability (assay) with water,"[3]; DS and excipients spiked with water, 32 days, closed vials, 40° C.",tosylate>maleate>HCl>HBr>fumarate
same,"Content of impurity 3-CBZ, order of salts",[3]; [10],maleate > HBr > HCl > Fumarate
same,"Content of impurity 852U77, order of salts",[3]; [10],fumarate > HBr ≈ HCl ≈ maleate ≈ tosylate
same,"Total imp., order of salts",[3]; [10],fumarate > maleate > HBr > HCl > tosylate
same,"Content of impurity 3-CBZ, order of salts",[3]; [11],HCl > HBr ≈ maleate ≈ fumarate
same,"Content of impurity 852U77, order of salts",[3]; [11],fumarate > HBr > maleate > HCl
same,"Total imp., order of salts",[3]; [11],fumarate > HBr > HCl > tosylate > maleate
same,"Order of stability (assay, % potency)","[3]; salt plus excipients, 20 days, closed vial, 40° C./75% RH",HBr>HCl=tosylate>fumarate>maleate
same,"pH (aq. 0.5%), Original (Initial APIs)",[4]; 0.5% aqueous solution,5.90
same,pH (aq. 0.5%),"[4]; Table 3, supplier API",5.90
same,% Assay,"[8]; 40° C./75% RH, 14-Days",98.5%
same,% Impurities 3-CBZ,"[8]; 40° C./75% RH, 14-Days",0.019%
same,% Impurities 20U78/dilu,"[8]; 40° C./75% RH, 14-Days",0.038%
same,% Impurities 852U77,"[8]; 40° C./75% RH, 14-Days",0.010%
same,% Impurities Total unknown,"[8]; 40° C./75% RH, 14-Days",0.038%
same,Total (%) impurities,"[8]; 40° C./75% RH, 14-Days",0.11%
same,% Assay,"[8]; 40° C./75% RH, 24 Days",98.5%
same,% Impurities 3-CBZ,"[8]; 40° C./75% RH, 24 Days",0.082%
same,% Impurities 20U78/dilu,"[8]; 40° C./75% RH, 24 Days",0.040%
same,% Impurities 827U76,"[8]; 40° C./75% RH, 24 Days",0.102%
same,% Impurities 852U77,"[8]; 40° C./75% RH, 24 Days",0.023%
same,% Impurities Total unknown,"[8]; 40° C./75% RH, 24 Days",0.049%
same,Total (%) impurities,"[8]; 40° C./75% RH, 24 Days",0.30%
same,% Assay,"[8]; 40° C./75% RH, Initial",100.4%
same,% Impurities 3-CBZ,"[8]; 40° C./75% RH, Initial",0.002%
same,% Impurities 20U78/dilu,"[8]; 40° C./75% RH, Initial",0.043%
same,% Impurities 852U77,"[8]; 40° C./75% RH, Initial",0.003%
same,% Impurities Total unknown,"[8]; 40° C./75% RH, Initial",0.044%
same,Total (%) impurities,"[8]; 40° C./75% RH, Initial",0.09%
same,% Assay,[8]; [12],96.3%
same,% Impurities 3-CBZ,[8]; [12],0.110%
same,% Impurities 20U78/dilu,[8]; [12],0.047%
same,% Impurities 827U76,[8]; [12],0.045%
same,% Impurities 852U77,[8]; [12],0.047%
same,% Impurities Total unknown,[8]; [12],0.187%
same,Total (%) impurities,[8]; [12],0.44%
same,% Assay,[8]; [13],96.5%
same,% Impurities 3-CBZ,[8]; [13],0.278%
same,% Impurities 20U78/dilu,[8]; [13],0.057%
same,% Impurities 827U76,[8]; [13],0.141%
same,% Impurities 852U77,[8]; [13],0.124%
same,% Impurities Total unknown,[8]; [13],0.137%
same,Total (%) impurities,[8]; [13],0.74%
same,% Assay,[8]; [14],99.4%
same,% Impurities 3-CBZ,[8]; [14],0.003%
same,% Impurities 20U78/dilu,[8]; [14],0.040%
same,% Impurities Total unknown,[8]; [14],0.053%
same,Total (%) impurities,[8]; [14],0.10%
same,% Assay,[8]; [15],99.1%
same,% Impurities 3-CBZ,[8]; [15],0.002%
same,% Impurities 20U78/dilu,[8]; [15],0.04%
same,% Impurities Total unknown,[8]; [15],0.165%
same,Total (%) impurities,[8]; [15],0.21%
same,Base value of bupropion released,[9],130 mg
Bupropion maleate,TGA: residue at 400° C.,[1],minimal residues
same,TGA: thermally stable to at least,[1]; TGA,at least 150 °C
same,TGA: weight lost between room temperature and 100° C.,[1],1.3%
same,"KF (moisture content), Original (Initial APIs)",[2],0.10%
same,"Content of impurity 3-CBZ, order of salts",[3]; [10],maleate > HBr > HCl > Fumarate
same,"Content of impurity 852U77, order of salts",[3]; [10],fumarate > HBr ≈ HCl ≈ maleate ≈ tosylate
same,"Total imp., order of salts",[3]; [10],fumarate > maleate > HBr > HCl > tosylate
same,"Content of impurity 3-CBZ, order of salts",[3]; [11],HCl > HBr ≈ maleate ≈ fumarate
same,"Content of impurity 852U77, order of salts",[3]; [11],fumarate > HBr > maleate > HCl
same,"Total imp., order of salts",[3]; [11],fumarate > HBr > HCl > tosylate > maleate
same,"pH (aq. 0.5%), Original (Initial APIs)",[4]; 0.5% aqueous solution,4.29
